In patent publication US20130209368A1, “NEAR INFRARED FLUORESCENT PARTICLES AND USES THEREOF” (YISSUM RESEARCH DEVELOPMENT COMPANY OF THE HEBREW …, priority 2010, published 2013):

Legend:
[1] = Absorption of ICG over time at light and at dark; assay type: physicochemical
Description: Absorbance spectra of the samples were taken using a Cary 100 Biospectrophotometer, in a 1 cm polystyrene cell, and a scan rate of 600 nm/min.
The red shift is accompanied with quenching of fluorescence, i.e., the larger the red shift the lower the fluorescence intensity. Because the fluorescence intensity of ICG-liposomes was greater than that of unbound ICG molecules (aqueous solution), the quantum yield ratio between the two states in which ICG is present was determined, for a concentration of 1.28×10^−3 mM. As mentioned above, ICG is poorly stable in aqueous solutions due to degradation, and therefore, in order to evaluate the stability of the ICG-adsorbed liposomes, the absorption of this fluorescent probe, when dissolved in an aqueous solution or adsorbed to the liposomes, was measured at light and at dark over time.

A431 cells = experiment: EGF-FITC labeling of A431 cells by fluorescent microscopy; assay type: cell-based; details: 10 ng/ml, 15 min; reduced by excess unlabeled EGF
Description: (§1) FIGS. 7A-7D show purification and bioactivity validation of EGF-FITC. Purification of FITC-labeled EGF was performed in two sequential steps of desalting (7A) and ion exchange (7B). A431 cultures were incubated with 10 ng/ml for 10 min with native (EGF) and FITC-labeled EGF (EGF-FITC) or left untreated. The phosphorylation of Erk (p-Erk) was evaluated using Western blotting. Total Erk protein (pan-Erk) was measured for internal control purposes to assure loading of equal protein quantities (7C). A431 cells were incubated for 15 min with 10 ng/ml EGF-FITC in the presence or absence of excess unlabeled EGF (500 ng/ml) or left untreated. The cultures were visualized using fluorescent microscopy at 40× magnification (7D).
In order to study the binding of cetuximab-labeled ICG-adsorbed liposomes to cell overexpressing EGFR we prepared FITC-labeled EGF (EGF-FITC) to be used as positive control. EGF-FITC was purified from excess FITC and unlabeled FOP via desalting and ion exchange purification steps. Following desalting, the fraction containing EGF and EGF-FITC was collected (FIG. 7A) and further processed to separate labeled from unlabeled EGF. […] Upon purification of EGF-FITC, the bioactivity of the labeled protein was evaluated. […] Following validation of the bioactivity of the labeled protein, EGF-FITC was used in the next experiments as a positive control.

[2] = tested on: Erk phosphorylation, an EGFR downstream signaling molecule, in A431 cells; experiment: EGF-FITC bioactivity: Erk phosphorylation by Western blotting; assay type: cell-based; details: A431 cultures, 10 ng/ml for 10 min
Description: as §1, with “The cultures were visualized using fluorescent microscopy at 40× magnification (7D).” left out
Western blotting was performed as described by Lecht et al. (2010). Briefly, total cellular protein was extracted following lysis of the A431 cells and quantified using the Bradford reagent assay (Bio-Rad, Hercules, Calif., USA). For Western blotting, equal quantities of protein (40 μg) were loaded on 10% polyacrylamide gels, separated by SDS-PAGE (100 V for 1.5 hrs), and transferred on ice to nitrocellulose membranes (90 V for 1.5 hrs) (Whatman, Germany). […]
In order to study the binding of cetuximab-labeled ICG-adsorbed liposomes to cell overexpressing EGFR we prepared FITC-labeled EGF (EGF-FITC) to be used as positive control. […] Upon purification of EGF-FITC, the bioactivity of the labeled protein was evaluated. […]

Row | Molecule | ICG absorption over time [1] | labeling of A431 cells (A431 cells) | Erk phosphorylation [2]
1 | CC1(C)C(/C=C/C=C/C=C/C=C2\N(CCCCS(=O)(=O)[O-])c3ccc4ccccc4c3C2(C)C)=[N+](CCCCS(=O)(=O)[O-])c2ccc3ccccc3c21.[Na+] [ICG, Indocyanine green] | decreases over time both in light and in dark |  | 
2 | EGF-FITC: human recombinant EGF covalently labeled with FITC, used as positive control |  | highly specific labeling | able to induce Erk phosphorylation
